{"source": "ChEMBL document CHEMBL5244272", "about": "(Eur J Med Chem, 2021)", "key": {"Plasmodium falciparum [1]": {"test_system": "Plasmodium falciparum", "experiment": "Antimalarial activity against Plasmodium falciparum RKL9", "assay_type": "functional, organism-based"}, "Plasmodium falciparum [2]": {"test_system": "Plasmodium falciparum", "experiment": "Antimalarial activity against Plasmodium falciparum 3D7", "assay_type": "functional, organism-based"}, "Plasmodium falciparum [3]": {"test_system": "Plasmodium falciparum", "experiment": "Antimalarial activity against late blood stage Plasmodium falciparum NF54 gametocytes", "assay_type": "functional, organism-based"}, "Plasmodium falciparum [4]": {"test_system": "Plasmodium falciparum", "experiment": "Antimalarial activity against Plasmodium falciparum Dd2", "assay_type": "functional, organism-based"}, "Plasmodium falciparum [5]": {"test_system": "Plasmodium falciparum", "experiment": "Antimalarial activity against Plasmodium falciparum K1", "assay_type": "functional, organism-based"}, "Plasmodium falciparum [6]": {"test_system": "Plasmodium falciparum", "experiment": "Antimalarial activity against Plasmodium falciparum NF54", "assay_type": "functional, organism-based"}, "Plasmodium berghei [7]": {"test_system": "Plasmodium berghei", "experiment": "Antimalarial activity against Plasmodium berghei K173 infected in mouse", "assay_type": "functional"}, "Plasmodium falciparum [8]": {"test_system": "Plasmodium falciparum", "experiment": "Antimalarial activity against chloroquine-sensitive Plasmodium falciparum HB3", "assay_type": "functional, organism-based"}, "Plasmodium falciparum [9]": {"test_system": "Plasmodium falciparum", "experiment": "Antimalarial activity against chloroquine-resistant Plasmodium falciparum K1", "assay_type": "functional, organism-based"}, "Plasmodium yoelii": {"test_system": "Plasmodium yoelii", "experiment": "Antimalarial activity against Plasmodium yoelii infected in mouse", "assay_type": "functional"}, "Plasmodium falciparum [10]": {"test_system": "Plasmodium falciparum", "experiment": "Antimalarial activity against chloroquine-sensitive Plasmodium falciparum NF54", "assay_type": "functional, organism-based"}, "Plasmodium berghei [11]": {"test_system": "Plasmodium berghei", "experiment": "Antimalarial activity against Plasmodium berghei infected in po dosed mouse", "assay_type": "functional"}, "Plasmodium berghei [12]": {"test_system": "Plasmodium berghei", "experiment": "Antimalarial activity against Plasmodium berghei infected in sc dosed mouse", "assay_type": "functional"}, "Plasmodium falciparum [13]": {"test_system": "Plasmodium falciparum", "experiment": "Antimalarial activity against chloroquine sensitive Plasmodium falciparum FCR-3", "assay_type": "functional, organism-based"}, "Plasmodium falciparum [14]": {"test_system": "Plasmodium falciparum", "experiment": "Potency index, ratio of artemisinin IC50 to test compound IC50 for Plasmodium falciparum D6", "assay_type": "functional"}, "Plasmodium falciparum [15]": {"test_system": "Plasmodium falciparum", "experiment": "Potency index, ratio of artemisinin IC50 to test compound IC50 for Plasmodium falciparum W2", "assay_type": "functional"}, "Plasmodium falciparum [16]": {"test_system": "Plasmodium falciparum", "experiment": "Antimalarial activity against ART-resistant Plasmodium falciparum harboring R539T mutant assessed as increase in survival at 700 nM", "assay_type": "functional"}, "Plasmodium berghei [17]": {"test_system": "Plasmodium berghei", "experiment": "Antimalarial activity against Plasmodium berghei infected in mouse", "assay_type": "functional", "details": "Plasmodium berghei"}, "Plasmodium falciparum [18]": {"test_system": "Plasmodium falciparum", "experiment": "Antimalarial activity against Plasmodium falciparum D10", "assay_type": "functional, organism-based"}}, "note": "pIC50: −log10 of the molar value."}
{"smiles": "CC12C=CC(=O)CC1OC(c1c[nH]c3ccccc13)OO2", "note": "(stereo unspecified)", "values": [{"measurement": "pIC50", "setting": "Plasmodium falciparum [1]", "result": 5.93}, {"measurement": "pIC50", "setting": "Plasmodium falciparum [2]", "result": 5.91}]}
{"smiles": "C[C@H]1[C@H](N2CCN(C(=O)Nc3ccc(C(F)(F)F)cc3)CC2)O[C@@H]2O[C@]3(C)CC[C@H]4[C@H](C)CC[C@@H]1[C@@]24OO3", "values": [{"measurement": "pIC50", "setting": "Plasmodium falciparum [3]", "result": 9.22}, {"measurement": "pIC50", "setting": "Plasmodium falciparum [4]", "result": 7.91}, {"measurement": "pIC50", "setting": "Plasmodium falciparum [5]", "result": 8.95}, {"measurement": "pIC50", "setting": "Plasmodium falciparum [6]", "result": 8.74}]}
{"smiles": "C[C@@H]1CC[C@H]2[C@@H](C)C(Nc3ccc(Cl)cc3)O[C@@H]3O[C@]4(C)CC[C@@H]1[C@]32OO4", "note": "(stereo partly specified)", "values": [{"measurement": "SD50", "setting": "Plasmodium berghei [7]", "result": 1.77, "unit": "mg/kg/day"}]}
{"smiles": "COc1cc(C2OOC3(C)C=CC(=O)CC3O2)ccc1O", "note": "(stereo unspecified)", "values": [{"measurement": "pIC50", "setting": "Plasmodium falciparum [1]", "result": 5.97}, {"measurement": "pIC50", "setting": "Plasmodium falciparum [2]", "result": 5.91}]}
{"smiles": "CNCCO[C@H]1O[C@@H]2O[C@]3(C)CC[C@H]4[C@H](C)CC[C@@H]([C@H]1C)[C@@]24OO3", "values": [{"measurement": "pIC50", "setting": "Plasmodium falciparum [8]", "result": 8.57}, {"measurement": "pIC50", "setting": "Plasmodium falciparum [9]", "result": 8.62}]}
{"smiles": "CC1CC2CCC(C1)[C@@](C)(/C=C/[C@@H](O)C(C)(C)O)OO2", "note": "(stereo partly specified)", "values": [{"measurement": "ED50", "setting": "Plasmodium yoelii", "result": 95, "unit": "mg/kg"}, {"measurement": "pIC50", "setting": "Plasmodium falciparum [5]", "result": 7.25}]}
{"smiles": "C[C@H]1[C@H](OC(=O)c2cccc([N+](=O)[O-])c2)O[C@@H]2O[C@]3(C)CC[C@H]4[C@H](C)CC[C@@H]1[C@@]24OO3", "values": [{"measurement": "pIC50", "setting": "Plasmodium falciparum [10]", "result": 7.98}]}
{"smiles": "C[C@H]1[C@H](c2cccn2C)O[C@@H]2O[C@]3(C)CC[C@H]4[C@H](C)CC[C@@H]1[C@@]24OO3", "values": [{"measurement": "ED90", "setting": "Plasmodium berghei [11]", "result": 8.5, "unit": "mg/kg"}, {"measurement": "ED50", "setting": "Plasmodium berghei [12]; Plasmodium berghei", "result": 0.7, "unit": "mg/kg"}]}
{"smiles": "CC1CC2CCC(C1)[C@@](C)(/C=C/[C@H](O)C(C)(C)O)OO2", "note": "(stereo partly specified)", "values": [{"measurement": "ED50", "setting": "Plasmodium yoelii", "result": 50, "unit": "mg/kg"}, {"measurement": "pIC50", "setting": "Plasmodium falciparum [5]", "result": 6.94}]}
{"smiles": "C[C@H]1[C@H](NS(=O)(=O)N2CCN(c3ccccn3)CC2)O[C@@H]2O[C@]3(C)CC[C@H]4[C@H](C)CC[C@@H]1[C@@]24OO3", "values": [{"measurement": "pIC50", "setting": "Plasmodium falciparum [3]", "result": 10.40}]}
{"smiles": "C[C@H]1[C@H](n2cc(-c3ccccc3C(F)(F)F)nn2)O[C@@H]2O[C@]3(C)CC[C@H]4[C@H](C)CC[C@@H]1[C@@]24OO3", "values": [{"measurement": "pIC50", "setting": "Plasmodium falciparum [13]", "result": 8.34}]}
{"smiles": "C[C@H]1[C@H](N2CCN(C(=O)c3ccc(F)cc3)CC2)O[C@@H]2O[C@]3(C)CC[C@H]4[C@H](C)CC[C@@H]1[C@@]24OO3", "values": [{"measurement": "pIC50", "setting": "Plasmodium falciparum [3]", "result": 9.22}, {"measurement": "pIC50", "setting": "Plasmodium falciparum [4]", "result": 8.82}, {"measurement": "pIC50", "setting": "Plasmodium falciparum [5]", "result": 8.68}, {"measurement": "pIC50", "setting": "Plasmodium falciparum [6]", "result": 8.97}]}
{"smiles": "COC(=O)CC[C@@H](C)[C@H]1CC[C@H]2[C@@H]3CC[C@@H]4CC5(CC[C@]4(C)[C@H]3C[C@H](OC(C)=O)[C@]12C)OOC(c1ccccc1)(C(F)(F)F)O5", "note": "(stereo partly specified)", "values": [{"measurement": "pIC50", "setting": "Plasmodium falciparum [9]", "result": "< 6.64"}]}
{"smiles": "C[C@@H]1CC[C@H]2[C@@H](C)C(=O)N(CC(=O)c3ccccc3)[C@@H]3O[C@]4(C)CC[C@@H]1[C@@]23OO4", "values": [{"measurement": "Ratio IC50", "setting": "Plasmodium falciparum [14]", "result": 1.8}, {"measurement": "Ratio IC50", "setting": "Plasmodium falciparum [15]", "result": 1.8}]}
{"smiles": "CCN(CC)Cc1ccc(CO[C@H]2O[C@@H]3O[C@]4(C)CC[C@H]5[C@H](C)CC[C@@H]([C@H]2C)[C@@]35OO4)cc1", "values": [{"measurement": "pIC50", "setting": "Plasmodium falciparum [8]", "result": 8.51}, {"measurement": "pIC50", "setting": "Plasmodium falciparum [9]", "result": 8.85}]}
{"smiles": "C[C@H]1[C@@H](CCN2CCN(c3cccc(C(F)(F)F)c3)CC2)O[C@@H]2O[C@]3(C)CC[C@H]4[C@H](C)CC[C@@H]1[C@@]24OO3", "values": [{"measurement": "ED90", "setting": "Plasmodium yoelii", "result": "< 10", "unit": "mg/kg"}]}
{"smiles": "C[C@H]1[C@H](N2CCN(C(=O)Nc3ccc(F)cc3)CC2)O[C@@H]2O[C@]3(C)CC[C@H]4[C@H](C)CC[C@@H]1[C@@]24OO3", "values": [{"measurement": "pIC50", "setting": "Plasmodium falciparum [4]", "result": 8.04}, {"measurement": "pIC50", "setting": "Plasmodium falciparum [5]", "result": 9.07}, {"measurement": "pIC50", "setting": "Plasmodium falciparum [6]", "result": 8.92}]}
{"smiles": "CCC(O)C[C@H]1O[C@@H]2O[C@]3(C)CC[C@H]4[C@H](C)CC[C@@H]([C@H]1C)[C@@]24OO3", "note": "(stereo partly specified)", "values": [{"measurement": "Ratio IC50", "setting": "Plasmodium falciparum [14]", "result": 5.8}, {"measurement": "Ratio IC50", "setting": "Plasmodium falciparum [15]", "result": 4.8}]}
{"smiles": "c1cc([C@H]2CC[C@]3(CC2)OOC2(O3)C3CC4CC(C3)CC2C4)ccc1OCCN1CCOCC1", "note": "(stereo partly specified)", "values": [{"measurement": "Activity", "setting": "Plasmodium falciparum [16]", "result": "<0.01", "unit": "%"}]}
{"smiles": "c1cc([C@H]2CC[C@]3(CC2)OOC2(O3)C3CC4CC(C3)CC2C4)ccc1OCCC1CCNCC1", "note": "(stereo partly specified)", "values": [{"measurement": "Activity", "setting": "Plasmodium falciparum [16]", "result": "<0.01", "unit": "%"}]}
{"smiles": "C[C@H]1[C@@H](Oc2ccc(C(F)(F)F)cc2)O[C@@H]2O[C@]3(C)CC[C@H]4[C@H](C)CC[C@@H]1[C@@]24OO3", "values": [{"measurement": "ED50", "setting": "Plasmodium berghei [17]", "result": 2.12, "unit": "mg/kg"}]}
{"smiles": "C[C@H]1[C@H](n2cc(-c3cccc(Cl)c3)nn2)O[C@@H]2O[C@]3(C)CC[C@H]4[C@H](C)CC[C@@H]1[C@@]24OO3", "values": [{"measurement": "pIC50", "setting": "Plasmodium falciparum [13]", "result": 8.89}]}
{"smiles": "C[C@H]1[C@@H](OCc2ccc(C(=O)N(CCNc3ccnc4cc(Cl)ccc34)CC(=O)NC3CCCCC3)cc2)O[C@@H]2O[C@]3(C)CC[C@H]4[C@H](C)CC[C@@H]1[C@@]24OO3", "values": [{"measurement": "pIC50", "setting": "Plasmodium falciparum [5]", "result": 7.64}, {"measurement": "pIC50", "setting": "Plasmodium falciparum [18]", "result": 7.59}]}
{"smiles": "C[C@H]1[C@@H](CC(O)C(C)(C)C)O[C@@H]2O[C@]3(C)CC[C@H]4[C@H](C)CC[C@@H]1[C@@]24OO3", "note": "(stereo partly specified)", "values": [{"measurement": "Ratio IC50", "setting": "Plasmodium falciparum [14]", "result": 5.4}, {"measurement": "Ratio IC50", "setting": "Plasmodium falciparum [15]", "result": 6.8}]}
{"smiles": "C[C@H]1[C@H](N2CCN(S(=O)(=O)c3cccc(C(F)(F)F)c3)CC2)O[C@@H]2O[C@]3(C)CC[C@H]4[C@H](C)CC[C@@H]1[C@@]24OO3", "values": [{"measurement": "pIC50", "setting": "Plasmodium falciparum [3]", "result": 9.40}]}
{"smiles": "C[C@H]1[C@H](n2cc(-c3ccc(F)cc3)nn2)O[C@@H]2O[C@]3(C)CC[C@H]4[C@H](C)CC[C@@H]1[C@@]24OO3", "values": [{"measurement": "pIC50", "setting": "Plasmodium falciparum [13]", "result": 8.85}]}
{"smiles": "CCCCCC[C@H]1C(=O)O[C@@H]2O[C@]3(C)CC[C@H]4[C@H](C)CC[C@@H]1[C@@]24OO3", "values": [{"measurement": "IC100", "setting": "Plasmodium berghei [12]", "result": 8, "unit": "mg/kg/day"}]}
